In paper PMC8100298, “Histone deacetylase inhibitor resminostat in combination with sorafenib counteracts platelet-mediated pro-tumoral effects in hepatocellular carcinoma” (Scientific Reports, 2021):
Read-outs that look alike come from different tables or passages of the source.

Tests used:
[1] = test system: Class I HDAC1, 2, 3, and 8; class II b HDAC6 and 10; and class IV HDAC11; assay: In vitro HDAC activity assay; type: biochemical, human; conditions: in words, from IC50 calculation (Fig. S1A)
Method: In vitro HDAC inhibition assay
The half maximal HDAC-inhibitory concentrations (IC50) of resminostat w ere determined by
in vitro HDAC activity assays (Reaction Biology Corporation RBC, Pennsylvania, USA). For
the assay, resminostat was dissolved in DMSO and a dilution series with 10 concentrations
was used. The inhibitory activity of resminostat was tested on purified recombinant human
HDAC1-11. HDAC1-11 were produced using a baculovirus express ion system (human
HDAC1: cat# 50051, BPS, California, US; human HDAC2: cat# KDA-21-277, RBC,
Pennsylvania, USA; human HDAC3: cat# KDA -22-278, RBC, Pennsylvania, USA; human
HDAC4: cat# 50004 BPS, California, US; human HDAC5: cat# KDA-21-280, RBC, […]
activities of HDAC1 to 11 were assessed using acetylated AMC (7-amino-4-methycoumarin)-
labelled fluorogenic peptide substrates: fluorogenic peptide from p53 residues 379-382 (RHKK(Ac)AMC) for HDAC1, 2, 3, 6, 10, 11; fluorogenic HDAC Class IIa Substrate (Trifluoro acetyl Lysine, Ac-LGK(TFA)-AMC) for HDAC 4, 5, 7, 9; and fluorogenic peptide from p53 residues 379-382 (RHK(Ac)K(Ac)AMC) for HDAC8. […] In a second step, the deacetylated products were digested by the addition of developer for 1 h at 30°C to produce the fluorescent signal proportional to the amount of deacetylated substrates and the fluorescence was measured using an Envision plate reader at 355 nm (excitation) and 460 nm (emission). […]

IGROV1 = assay: Efficacy screening assay; type: cell-based; conditions: IGROV1, ovary
Method: (§1) The experiment was performed by Oncolead GmbH & Co. KG (Karlsfeld , Germany), based on a standardized screening procedure . Cell lines were purchased directly from the ATCC, NCI and DSMZ cell line c ollections. Cells used for the study had undergone less than 20 passages. To ensure the absence of potential contamination and wrong assignment, all cell lines were tested using a whole genome assay (Agilent, USA). All cell lines were grown as recommended by the suppliers and with addition of 100 U/mL penicillin G and 100 µg/mL; streptomycin. Cell growth and treatments were performed in Nunclon D 96 -well plates (NUNC, Germany). The optimal seeding density for each cell line was determined to ensure exponential growth for the duration of the experiment. All cells growing without anti-cancer agents were sub-conﬂuent by the end of the treatment, as determined by visual inspection.
(§2) After an initial 24 h pre-growth period, the compounds were added. The vehicle concentration […]
(§3) was 0.1% DMSO. After incubation at 37°C for 72 h, the culture medium was aspirated, and the cells were precipitated by the addition of 10% trichloroacetic acid (Sigma-Aldrich, Missouri, US). After overnight incubation at 4°C, the plates were washed three times with deionized water. The precipitates were then stained with SRB (0.4% wt/v sulforhodamine B solution in 1% acetic acid, Sigma-Aldrich, Missouri, US). Afterwards, the plates were washed six times with 1% acetic acid to remove unbound stain. After drying the plates at room temperature, the bound SRB was solubilized with 10 mM Tris base and the optical density was measured at 520 nm using a Victor2 plate reader (Perkin Elmer, Germany). Blank OD values were subtracted from mean OD values for each concentration. The nonlinear curve ﬁtting and EC50 calculations were per formed using XLﬁt and algorithm “205” (ID Business […]
(§4) Multiplicity adjusted p-values with 95% confidence interval was applied. For the invasion assays in Figure 4, one-way ANOVA with multiple comparison testing (Tukey) was performed. Multiplicity adjusted p-values with 95% confidence interval was applied. The adjusted p-values comparing vehicle control without vs. with platelets and compound

IMR90 = assay: Efficacy screening assay; type: cell-based; conditions: Homo sapiens, IMR-90, IMR90, lung, 72 h
Method: as §1, §2, §3, §4

J82 = assay: Efficacy screening assay; type: cell-based; conditions: J82, bladder
Method: as §1, §2, §3, §4

JIMT1 = assay: Efficacy screening assay; type: cell-based; conditions: JIMT1, breast
Method: as §1, §2, §3, §4

LOVO = assay: Efficacy screening assay; type: cell-based; conditions: 72 h, colon
Method: as §1, §2, §3, §4

MCF7 = assay: Efficacy screening assay; type: cell-based; conditions: MCF7, breast
Method: as §1, §2, §3, §4

MDAMB231 = assay: Efficacy screening assay; type: cell-based; conditions: MDAMB231, breast
Method: as §1, §2, §3, §4

MDAMB435 = assay: Efficacy screening assay; type: cell-based; conditions: MDAMB435, skin
Method: as §1, §2, §3, §4

MDAMB436 = assay: Efficacy screening assay; type: cell-based; conditions: MDAMB436, breast
Method: as §1, §2, §3, §4

MDAMB468 = assay: Efficacy screening assay; type: cell-based; conditions: MDAMB468, breast
Method: as §1, §2, §3, §4

MG63 = assay: Efficacy screening assay; type: cell-based; conditions: MG63, bone
Method: as §1, §2, §3, §4

MHHES1 = assay: Efficacy screening assay; type: cell-based; conditions: MHHES1, bone
Method: as §1, §2, §3, §4

CN(C)Cc1ccc(S(=O)(=O)n2ccc(/C=C/C(=O)NO)c2)cc1 [resminostat, Resminostat]
inhibition of HDAC activity [1]: inhibits the activity
EC50 (IGROV1; Homo sapiens, IGROV-1, 72 h, log of EC50, negative, read-out: log(EC50) (converted)): 1910 nM
EC50 (IGROV1; Homo sapiens, IGROV-1, 72 h, read-out: EC50): 1880 nM
EC50 (IGROV1; 72 h, read-out: EC50): 1880 nM
EC50 (IMR90; log of EC50, negative, read-out: log(EC50) (converted)): 11000 nM
EC50 (IMR90; read-out: EC50): 10900 nM
EC50 (J82; Homo sapiens, J82, 72 h, log of EC50, negative, read-out: log(EC50) (converted)): 5620 nM
EC50 (J82; Homo sapiens, J82, 72 h, read-out: EC50): 5680 nM
EC50 (J82; 72 h, read-out: EC50): 5680 nM
EC50 (JIMT1; Homo sapiens, JIMT-1, 72 h, log of EC50, negative, read-out: log(EC50) (converted)): 3020 nM
EC50 (JIMT1; Homo sapiens, JIMT-1, 72 h, read-out: EC50): 3030 nM
EC50 (JIMT1; 72 h, read-out: EC50): 3030 nM
EC50 (LOVO; Homo sapiens, LoVo, log of EC50, negative, read-out: log(EC50) (converted)): 1050 nM
EC50 (LOVO; Homo sapiens, LoVo, read-out: EC50): 1050 nM
EC50 (LOVO; read-out: EC50): 1050 nM
EC50 (MCF7; Homo sapiens, MCF7, 72 h, log of EC50, negative, read-out: log(EC50) (converted)): 1700 nM
EC50 (MCF7; Homo sapiens, MCF7, 72 h, read-out: EC50): 1690 nM
EC50 (MCF7; 72 h, read-out: EC50): 1690 nM
EC50 (MDAMB231; Homo sapiens, MDA-MB-231, 72 h, log of EC50, negative, read-out: log(EC50) (converted)): 2340 nM
EC50 (MDAMB231; Homo sapiens, MDA-MB-231, 72 h, read-out: EC50): 2360 nM
EC50 (MDAMB231; 72 h, read-out: EC50): 2360 nM
EC50 (MDAMB435; Homo sapiens, MDA-MB-435, 72 h, log of EC50, negative, read-out: log(EC50) (converted)): 2090 nM
EC50 (MDAMB435; Homo sapiens, MDA-MB-435, 72 h, read-out: EC50): 2110 nM
EC50 (MDAMB435; 72 h, read-out: EC50): 2110 nM
EC50 (MDAMB436; Homo sapiens, MDA-MB-436, 72 h, log of EC50, negative, read-out: log(EC50) (converted)): 7080 nM
EC50 (MDAMB436; Homo sapiens, MDA-MB-436, 72 h, read-out: EC50): 7150 nM
EC50 (MDAMB436; 72 h, read-out: EC50): 7150 nM
EC50 (MDAMB468; Homo sapiens, MDA-MB-468, 72 h, log of EC50, negative, read-out: log(EC50) (converted)): 2290 nM
EC50 (MDAMB468; Homo sapiens, MDA-MB-468, 72 h, read-out: EC50): 2300 nM
EC50 (MDAMB468; 72 h, read-out: EC50): 2300 nM
EC50 (MG63; Homo sapiens, MG-63, 72 h, log of EC50, negative, read-out: log(EC50) (converted)): 1740 nM
EC50 (MG63; Homo sapiens, MG-63, 72 h, read-out: EC50): 1760 nM
EC50 (MG63; 72 h, read-out: EC50): 1750 nM
EC50 (MHHES1; Homo sapiens, MHH-ES-1, 72 h, log of EC50, negative, read-out: log(EC50) (converted)): 1380 nM
EC50 (MHHES1; Homo sapiens, MHH-ES-1, 72 h, read-out: EC50): 1380 nM
EC50 (MHHES1; 72 h, read-out: EC50): 1380 nM
